Test results taken from patent publication US20260201008A1, “SECRETIN-DERIVED GLP1R SELECTIVE AGONISTS” (GUBRA A/S, priority 2023, published 2026).
Numbered stars: 1 amine (or outer) side, 2 acyl side, 3 side chain; on linkers, the order of the positions; unused ones are H or OH. Square brackets hold non-standard residues; d marks the D form. Side chains are listed from the residue outwards. Peptide text beside a SMILES is read from it. * marks the point of attachment. C20 diacid = O=C(O)CCCCCCCCCCCCCCCCCCC(=O)*; γGlu = O=C(O)[C@H](CCC(=O)[*:2])N[*:1]; AEEA = NCCOCCOCC(=O)O; Aib = CC(C)(N)C(=O)O

Assays:
[1] = Fibril formation of crude library peptides (Thioflavin T); type: physicochemical; parameters: key: average ThT fluorescence emission at 480 nm (ex 450 nm), raw units; settings: Physical stability of peptides
Summary of the method: (§1)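 Turbidity is the absorbance at 600 nm, taken before heating. Fibril signal is the mean ThT emission at 480 nm (450 nm excitation), read every 10 min over 72 h at 40° C with 700 rpm shaking between reads. Peptides at 267 μM, pH 4.0 acetate or pH 7.0 phosphate buffer (50 mM), 4 μM ThT final.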

SCTR = SCTR (Homo sapiens, UniProt P47872); experiment: hSCTR potency, cAMP accumulation in CHO-K1 cells stably overexpressing hSCTR; type: cell-based; parameters: alternatively Euroscreen ES-712-AF; FAST-0161L; host or cells: CHO-K1; settings: cAMP accumulation, CHO-K1 cells overexpressing hSCTR; read-out: pEC50 hSCTR (converted)
Summary of the method: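 Thawed CHO-K1 cells carrying stable hSCTR are plated into casein/IBMX buffer (0.05%, 0.5 mM), dosed immediately for 30 min at room temperature, then cAMP is detected by TR-FRET. Purified peptides run as 11 three-fold dilutions in duplicate, and curves are fitted with variable slope.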

[2] = Turbidity of crude library peptides (absorbance at 600 nm); type: physicochemical; settings: Physical stability of peptides
Summary of the method: as §1

GLP1R = GLP1R (Homo sapiens, UniProt P43220); experiment: hGLP1R potency, cAMP accumulation in CHO-K1 cells stably overexpressing hGLP1R; type: cell-based; parameters: host or cells: CHO-K1; settings: for Selectivity: SCTR EC50/GLP1R EC50 ratio; for EC50: cAMP accumulation, CHO-K1 cells overexpressing hGLP1R, read-out: pEC50 hGLPR1 (converted)
Summary of the method: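 2000 cells/well, DPBS + 0.05% casein + 0.5 mM IBMX; 30 min RT stimulation; HTRF cAMP detection after 1 h. Purified: 3-fold ×11, n=2; crude: 10-fold ×5, n=1. EC50 by variable-slope fit.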

GLP1R, sequence (P43220 24-463): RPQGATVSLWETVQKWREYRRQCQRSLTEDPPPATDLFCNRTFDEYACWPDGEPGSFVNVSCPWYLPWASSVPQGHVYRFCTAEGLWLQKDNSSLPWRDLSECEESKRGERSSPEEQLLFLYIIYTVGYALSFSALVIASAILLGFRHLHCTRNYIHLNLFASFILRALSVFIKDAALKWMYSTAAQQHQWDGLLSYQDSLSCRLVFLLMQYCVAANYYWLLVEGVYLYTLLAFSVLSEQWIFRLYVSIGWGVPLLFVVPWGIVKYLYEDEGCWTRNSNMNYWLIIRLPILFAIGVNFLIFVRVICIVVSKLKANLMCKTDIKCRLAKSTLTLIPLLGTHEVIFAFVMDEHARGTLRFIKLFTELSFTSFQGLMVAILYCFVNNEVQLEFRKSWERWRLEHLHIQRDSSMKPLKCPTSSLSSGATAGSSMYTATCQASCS
SCTR, sequence (P47872 23-440): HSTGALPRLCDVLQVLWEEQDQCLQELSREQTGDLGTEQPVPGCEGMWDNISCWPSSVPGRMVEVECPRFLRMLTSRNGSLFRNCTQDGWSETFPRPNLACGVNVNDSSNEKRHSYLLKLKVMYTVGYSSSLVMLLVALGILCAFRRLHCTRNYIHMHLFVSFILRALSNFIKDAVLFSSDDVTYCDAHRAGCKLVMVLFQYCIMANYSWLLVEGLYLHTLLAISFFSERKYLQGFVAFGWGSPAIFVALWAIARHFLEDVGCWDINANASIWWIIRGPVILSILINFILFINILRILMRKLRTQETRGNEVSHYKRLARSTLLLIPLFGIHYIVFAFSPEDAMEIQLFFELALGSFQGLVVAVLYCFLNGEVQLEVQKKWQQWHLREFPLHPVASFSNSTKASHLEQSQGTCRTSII

SMILES | Fibril formation [1] | EC50 (SCTR) [nM] | Turbidity (pH 7) [2] | Selectivity (GLP1R) | EC50 (GLP1R) [nM]
CC(C)C[C@H](NC(=O)[C@H](Cc1ccccc1)NC(=O)[C@H](CCCNC(=N)N)NC(=O)[C@H](CCC(N)=O)NC(=O)[C@H](CCC(N)=O)NC(=O)[C@H](C)NC(=O)[C@H](C)NC(=O)[C@@H](NC(=O)[C@H](CCC(=O)O)NC(=O)[C@H](CCCCNC(=O)COCCOCCNC(=O)COCCOCCNC(=O)CC[C@H](NC(=O)CCCCCCCCCCCCCCCCCCC(=O)O)C(=O)O)NC(=O)[C@H](CC(C)C)NC(=O)[C@H](Cc1ccc(O)cc1)NC(=O)[C@H](CO)NC(=O)[C@@H](NC(=O)[C@H](CC(=O)O)NC(=O)[C@H](CO)NC(=O)[C@@H](NC(=O)[C@H](Cc1ccccc1)NC(=O)[C@@H](NC(=O)CNC(=O)[C@H](CCC(=O)O)NC(=O)C(C)(C)NC(=O)[C@@H](N)Cc1c[nH]cn1)[C@@H](C)O)[C@@H](C)O)C(C)C)[C@@H](C)O)C(=O)N[C@@H](CCC(=O)O)C(=O)N[C@@H](Cc1c[nH]cn1)C(=O)N[C@@H](CC(C)C)C(=O)N[C@H](C(N)=O)C(C)C [compound 58] (H-H[Aib]EGTFTSDVSYLK([AEEA-AEEA-γGlu-C20 diacid])ETAAQQRFLEHLV-NH2) | 22040 | 1000 | 0.08 | 35408 | 0.0251
CC(C)C[C@H](NC(=O)[C@H](Cc1ccccc1)NC(=O)[C@H](CCCNC(=N)N)NC(=O)[C@H](CCC(N)=O)NC(=O)[C@H](CO)NC(=O)[C@H](C)NC(=O)[C@H](C)NC(=O)C(C)(C)NC(=O)[C@H](CCC(=O)O)NC(=O)[C@H](CCCCNC(=O)COCCOCCNC(=O)COCCOCCNC(=O)CC[C@H](NC(=O)CCCCCCCCCCCCCCCCCCC(=O)O)C(=O)O)NC(=O)[C@H](CC(C)C)NC(=O)[C@H](CCCNC(=N)N)NC(=O)[C@H](CO)NC(=O)[C@@H](NC(=O)[C@H](CC(=O)O)NC(=O)[C@H](CO)NC(=O)[C@@H](NC(=O)[C@H](Cc1ccccc1)NC(=O)[C@@H](NC(=O)CNC(=O)[C@H](CCC(=O)O)NC(=O)C(C)(C)NC(=O)[C@@H](N)Cc1c[nH]cn1)[C@@H](C)O)[C@@H](C)O)C(C)C)C(=O)N[C@@H](CCC(=O)O)C(=O)N[C@@H](Cc1c[nH]cn1)C(=O)N[C@@H](CC(C)C)C(=O)N[C@H](C(N)=O)C(C)C [compound 59] (H-H[Aib]EGTFTSDVSRLK([AEEA-AEEA-γGlu-C20 diacid])E[Aib]AASQRFLEHLV-NH2) | 13939 | 126 | 0.09 | 4314 | 0.0316
CC(C)C[C@H](NC(=O)[C@H](Cc1ccccc1)NC(=O)[C@H](CCCNC(=N)N)NC(=O)[C@H](CCC(N)=O)NC(=O)[C@H](C)NC(=O)[C@H](C)NC(=O)[C@H](C)NC(=O)[C@H](CCC(=O)O)NC(=O)[C@H](CCC(=O)O)NC(=O)[C@H](CCCCNC(=O)COCCOCCNC(=O)COCCOCCNC(=O)CC[C@H](NC(=O)CCCCCCCCCCCCCCCCCCC(=O)O)C(=O)O)NC(=O)[C@H](CC(C)C)NC(=O)[C@H](CCCNC(=N)N)NC(=O)[C@H](CO)NC(=O)[C@@H](NC(=O)[C@H](CC(=O)O)NC(=O)[C@H](CO)NC(=O)[C@@H](NC(=O)[C@H](Cc1ccccc1)NC(=O)[C@@H](NC(=O)CNC(=O)[C@H](CCC(=O)O)NC(=O)C(C)(C)NC(=O)[C@@H](N)Cc1c[nH]cn1)[C@@H](C)O)[C@@H](C)O)C(C)C)C(=O)N[C@@H](CCC(=O)O)C(=O)N[C@@H](Cc1c[nH]cn1)C(=O)N[C@@H](CC(C)C)C(=O)N[C@H](C(N)=O)C(C)C [compound 60] (H-H[Aib]EGTFTSDVSRLK([AEEA-AEEA-γGlu-C20 diacid])EEAAAQRFLEHLV-NH2) | 11873 | 251 | 0.09 | 9419 | 0.0316

Second part, the compound after the results:

Fibril formation [1] | EC50 (SCTR) [nM] | Turbidity (pH 7) [2] | Selectivity (GLP1R) | EC50 (GLP1R) [nM] | SMILES
6162 | 158 | 0.09 | 16315 | 0.01 | CC(C)C[C@H](NC(=O)[C@H](Cc1ccccc1)NC(=O)[C@H](CCCNC(=N)N)NC(=O)[C@H](CCC(N)=O)NC(=O)[C@@H](NC(=O)[C@H](C)NC(=O)[C@H](C)NC(=O)[C@H](CCC(=O)O)NC(=O)[C@H](CCC(=O)O)NC(=O)[C@H](CCCCNC(=O)COCCOCCNC(=O)COCCOCCNC(=O)CC[C@H](NC(=O)CCCCCCCCCCCCCCCCCCC(=O)O)C(=O)O)NC(=O)[C@H](CC(C)C)NC(=O)[C@H](CCC(=O)O)NC(=O)[C@H](CO)NC(=O)[C@@H](NC(=O)[C@H](CC(=O)O)NC(=O)[C@H](CO)NC(=O)[C@@H](NC(=O)[C@H](Cc1ccccc1)NC(=O)[C@@H](NC(=O)CNC(=O)[C@H](CCC(=O)O)NC(=O)C(C)(C)NC(=O)[C@@H](N)Cc1c[nH]cn1)[C@@H](C)O)[C@@H](C)O)C(C)C)[C@@H](C)O)C(=O)N[C@@H](CCC(=O)O)C(=O)N[C@@H](Cc1c[nH]cn1)C(=O)N[C@@H](CC(C)C)C(=O)N[C@H](C(N)=O)C(C)C [compound 55] (H-H[Aib]EGTFTSDVSELK([AEEA-AEEA-γGlu-C20 diacid])EEAATQRFLEHLV-NH2)
11030 | 7940 | 0.10 | 179887 | 0.0398 | CC(C)C[C@H](NC(=O)[C@H](Cc1ccccc1)NC(=O)[C@H](CCCNC(=N)N)NC(=O)[C@H](CCC(N)=O)NC(=O)[C@H](CCC(=O)O)NC(=O)[C@H](C)NC(=O)[C@H](C)NC(=O)[C@H](CCC(=O)O)NC(=O)[C@H](CCC(=O)O)NC(=O)[C@H](CCCCNC(=O)COCCOCCNC(=O)COCCOCCNC(=O)CC[C@H](NC(=O)CCCCCCCCCCCCCCCCCCC(=O)O)C(=O)O)NC(=O)[C@H](CC(C)C)NC(=O)[C@H](Cc1ccccc1)NC(=O)[C@H](CO)NC(=O)[C@@H](NC(=O)[C@H](CC(=O)O)NC(=O)[C@H](CO)NC(=O)[C@@H](NC(=O)[C@H](Cc1ccccc1)NC(=O)[C@@H](NC(=O)CNC(=O)[C@H](CCC(=O)O)NC(=O)C(C)(C)NC(=O)[C@@H](N)Cc1c[nH]cn1)[C@@H](C)O)[C@@H](C)O)C(C)C)C(=O)N[C@@H](CCC(=O)O)C(=O)N[C@@H](Cc1c[nH]cn1)C(=O)N[C@@H](CC(C)C)C(=O)N[C@H](C(N)=O)C(C)C [compound 56] (H-H[Aib]EGTFTSDVSFLK([AEEA-AEEA-γGlu-C20 diacid])EEAAEQRFLEHLV-NH2)
4882 | 5010 | 0.08 | 212618 | 0.0251 | CC(C)C[C@H](NC(=O)[C@H](Cc1ccccc1)NC(=O)[C@H](CCCNC(=N)N)NC(=O)[C@H](CCC(N)=O)NC(=O)[C@H](C)NC(=O)[C@H](C)NC(=O)[C@H](C)NC(=O)[C@@H](NC(=O)[C@H](CCC(=O)O)NC(=O)[C@H](CCCCNC(=O)COCCOCCNC(=O)COCCOCCNC(=O)CC[C@H](NC(=O)CCCCCCCCCCCCCCCCCCC(=O)O)C(=O)O)NC(=O)[C@H](CC(C)C)NC(=O)[C@H](CCC(=O)O)NC(=O)[C@H](CO)NC(=O)[C@@H](NC(=O)[C@H](CC(=O)O)NC(=O)[C@H](CO)NC(=O)[C@@H](NC(=O)[C@H](Cc1ccccc1)NC(=O)[C@@H](NC(=O)CNC(=O)[C@H](CCC(=O)O)NC(=O)C(C)(C)NC(=O)[C@@H](N)Cc1c[nH]cn1)[C@@H](C)O)[C@@H](C)O)C(C)C)[C@@H](C)O)C(=O)N[C@@H](CCC(=O)O)C(=O)N[C@@H](Cc1c[nH]cn1)C(=O)N[C@@H](CC(C)C)C(=O)N[C@H](C(N)=O)C(C)C [compound 57] (H-H[Aib]EGTFTSDVSELK([AEEA-AEEA-γGlu-C20 diacid])ETAAAQRFLEHLV-NH2)
9138 | 794 | 0.09 | 66252 | 0.0126 | CC(C)C[C@H](NC(=O)[C@H](Cc1ccccc1)NC(=O)[C@H](CCCNC(=N)N)NC(=O)[C@H](CCC(N)=O)NC(=O)[C@H](C)NC(=O)[C@H](C)NC(=O)[C@H](C)NC(=O)[C@H](CCC(=O)O)NC(=O)[C@H](CCC(=O)O)NC(=O)[C@H](CCCCNC(=O)COCCOCCNC(=O)COCCOCCNC(=O)CC[C@H](NC(=O)CCCCCCCCCCCCCCCCCCC(=O)O)C(=O)O)NC(=O)[C@H](CC(C)C)NC(=O)[C@H](Cc1ccc(O)cc1)NC(=O)[C@H](CO)NC(=O)[C@@H](NC(=O)[C@H](CC(=O)O)NC(=O)[C@H](CO)NC(=O)[C@@H](NC(=O)[C@H](Cc1ccccc1)NC(=O)[C@@H](NC(=O)CNC(=O)[C@H](CCC(=O)O)NC(=O)C(C)(C)NC(=O)[C@@H](N)Cc1c[nH]cn1)[C@@H](C)O)[C@@H](C)O)C(C)C)C(=O)N[C@@H](CCC(=O)O)C(=O)N[C@@H](Cc1c[nH]cn1)C(=O)N[C@@H](CC(C)C)C(=O)N[C@H](C(N)=O)C(C)C [compound 61] (H-H[Aib]EGTFTSDVSYLK([AEEA-AEEA-γGlu-C20 diacid])EEAAAQRFLEHLV-NH2)
